# Results from patent publication US5213797A, “A80407 antibiotics” (Eli Lilly and Company, priority 1990, dated 1993).
# Tested on: Kibdelosporangium philippinensis (cultures A80407 and A80407.4)
# Experiment: Resistance to antibiotics of the producing cultures, antibiotic sensitivity discs on seeded ISP No. 2 agar
# Conditions: both cultures
compound,measurement,setting,value
CC(=O)OCC1=C(C(=O)O)N2C(=O)[C@@H](NC(=O)Cc3cccs3)[C@H]2SC1 [cephalothin],Resistance to antibiotics,30 μg,resistant
O=C(N[C@H](CO)[C@H](O)c1ccc([N+](=O)[O-])cc1)C(Cl)Cl [chloramphenicol],Resistance to antibiotics,30 μg,sensitive
CC[C@H]1OC(=O)[C@H](C)[C@@H](O[C@H]2C[C@@](C)(OC)[C@@H](O)[C@H](C)O2)[C@H](C)[C@@H](O[C@@H]2O[C@H](C)C[C@H](N(C)C)[C@H]2O)[C@](C)(O)C[C@@H](C)C(=O)[C@H](C)[C@@H](O)[C@]1(C)O [erythromycin],Resistance to antibiotics,15 μg,sensitive
CCC[C@@H]1C[C@@H](C(=O)N[C@@H]([C@H]2O[C@H](SC)[C@H](O)[C@@H](O)[C@H]2O)[C@@H](C)O)N(C)C1 [lincomycin],Resistance to antibiotics,2 μg,resistant
C1N2CN3CN1CN(C2)C3 [mandelamine],Resistance to antibiotics,3 μg,sensitive
CCn1cc(C(=O)O)c(=O)c2ccc(C)nc21 [nalidixic acid],Resistance to antibiotics,30 μg,resistant
NC[C@@H]1O[C@H](O[C@H]2[C@@H](O)[C@H](O[C@@H]3[C@@H](O)[C@H](N)C[C@H](N)[C@H]3O[C@H]3O[C@H](CN)[C@@H](O)[C@H](O)[C@H]3N)O[C@@H]2CO)[C@H](N)[C@@H](O)[C@@H]1O [neomycin],Resistance to antibiotics,30 μg,sensitive
CO[C@@H]1[C@@H](OC(N)=O)[C@@H](O)[C@H](Oc2ccc3c(O)c(NC(=O)c4ccc(O)c(CC=C(C)C)c4)c(=O)oc3c2C)OC1(C)C [novobiocin],Resistance to antibiotics,30 μg,sensitive
CC1(C)S[C@@H]2[C@H](NC(=O)Cc3ccccc3)C(=O)N2[C@H]1C(=O)O [penicillin G],Resistance to antibiotics,10 units,resistant
CO[C@H]1/C=C/O[C@@]2(C)Oc3c(C)c(O)c4c(O)c(c(/C=N/N5CCN(C)CC5)c(O)c4c3C2=O)NC(=O)/C(C)=C\C=C\[C@H](C)[C@H](O)[C@@H](C)[C@@H](O)[C@@H](C)[C@H](OC(C)=O)[C@@H]1C [rifampin],Resistance to antibiotics,5 μg,sensitive
Nc1ccc(S(=O)(=O)Nc2ncccn2)cc1 [sulfadiazine],Resistance to antibiotics,300 units,resistant
CN(C)C1C(=O)C(C(N)=O)=C(O)C2(O)C(=O)C3=C(O)c4c(O)cccc4C(C)(O)C3CC12 (stereo not drawn) [tetracycline],Resistance to antibiotics,10 μg,sensitive
NC[C@H]1O[C@H](O[C@H]2[C@H](O)[C@@H](O[C@H]3O[C@H](CO)[C@@H](O)[C@H](N)[C@H]3O)[C@H](N)C[C@@H]2N)[C@H](N)C[C@@H]1O [tobramycin],Resistance to antibiotics,10 μg,resistant
COc1cc(Cc2cnc(N)nc2N)cc(OC)c1OC [trimethoprim],Resistance to antibiotics,5 μg,resistant
CN[C@H](CC(C)C)C(=O)N[C@H]1C(=O)N[C@@H](CC(N)=O)C(=O)N[C@H]2C(=O)N[C@H]3C(=O)N[C@H](C(=O)N[C@H](C(=O)O)c4cc(O)cc(O)c4-c4cc3ccc4O)[C@H](O)c3ccc(c(Cl)c3)Oc3cc2cc(c3O[C@@H]2O[C@H](CO)[C@@H](O)[C@H](O)[C@H]2O[C@H]2C[C@](C)(N)[C@H](O)[C@H](C)O2)Oc2ccc(cc2Cl)[C@H]1O [vancomycin],Resistance to antibiotics,30 μg,resistant
gentamycin,Resistance to antibiotics,10 μg,sensitive
oleandomycin,Resistance to antibiotics,15 μg,resistant
polymixin B,Resistance to antibiotics,300 units,resistant
